Experiments:
[1] = tested on: platelet aggregation; assay: In-vitro platelet aggregation in PRP (ADP-induced); format: cell-based, dogs; details: dog platelet-rich plasma; for IC50: ADP 50 um final concentration, IC50 by linear regression of the dose response curve
Procedure: Healthy male or female dogs were fasted for 8 hours prior to drawing blood; then 30 ml whole blood was collected using a butterfly needle and 30 cc plastic syringe with 3 ml of 0.129 M buffered sodium citrate (3.8%). The syringe was rotated carefully as blood was drawn to mix the citrate. Platelet-rich plasma (PRP) was prepared by centrifugation at 975 x g for 3.17 minutes at room temperature allowing the centrifuge to coast to a stop without braking. The PRP was removed from the blood with a plastic pipette and placed in a plastic capped, 50 mL Corning conical sterile centrifuge tube which was held at room temperature. Platelet poor plasma (PPP) was prepared by centrifuging the remaining blood at 2000 x g for 15 minutes at room temperature allowing the centrifuge to coast to a stop without braking. The PRP was adjusted with PPP to a count of 2-3 x 10^8 platelets per mL. 400 uL of the PRP preparation and 50 uL of the compounds solution to be tested or saline were preincubated for 1 minute at 37°C in a BioData, Horsham, PA). 50 uL of adenosine 5' diphosphate (ADP) (50 um final concentration) was added to the cuvettes and the aggregation was monitored for 1 minute. All compounds are tested in duplicate. Results are calculated as follows: Percent of control = [(maximal OD minus initial OD of compound) divided by (maximal OD minus initial OD of control saline)] x 100. The % inhibition = 100 - (percent of control).
The compounds tested and their median inhibitory concentrations (IC50) are recorded in Table I. IC50's (dosage at which 50% of platelet aggregation is inhibited) were calculated by linear regression of the dose response curve.

[2] = tested on: collagen induced platelet aggregation; assay: Inhibition of ex vivo collagen induced platelet aggregation after administration to dogs; format: in vivo, dogs (Beagles); details: after 24 hours, administered orally to dogs at a dose of 20 mg/kg
Procedure: The purpose of this assay is to determine the effects of antiplatelet compounds on ex vivo collagen induced platelet aggregation when administered either intravenously or orally to dogs.
Pretreatment (control) blood samples are drawn from either conscious or anesthetized dogs (Beagles) and centrifuged to prepare platelet rich plasma (PRP). Aggregatory response to collagen is measured in a aggregometer and used as Control. Compounds are administered, either intragasterically (either by capsule or stomach tube or intravenously). Blood samples are drawn at predetermined intervals after compound administration, PRP prepared and aggregation to collagen determined. Compound inhibition of aggregation is determined by comparing the aggregation response after compound administration to the pretreatment response. The study is continued for a maximum of 24 hours or until the platelet aggregation returns to control levels. (If aggregation is still inhibited after 7 hours, a blood sample is drawn the following morning and tested.) Duration of activity is determined by the length of time platelet aggregation is inhibited after compound administration.

| Compound | IC50 ([1]; Canis lupus familiaris) | IC50 [1] | further results |
| --- | --- | --- | --- |
| N=C(N)c1ccc(NC(=O)CCC(=O)NC(CC(=O)O)c2cccnc2)cc1 (racemic) [Example 2, D,L-β-[[4-[[4-(aminoiminomethyl)phenyl]amino]-1,4-dioxobutyl]amino]-3-pyridinepropanoic acid] | 93 nM | – | – |
| N=C(N)c1ccc(NC(=O)C2CC2C(=O)NC(CC(=O)O)c2cccnc2)cc1 (single isomer, unassigned; isomer 2) [Example 27] | > 10000 nM | – | – |
| CCOC(=O)C[C@H](NC(=O)CCC(=O)Nc1ccc(C(=N)N)cc1)c1cccnc1 [Example 4, Ethyl βS-[[4-[[4-(aminoiminomethyl)phenyl]amino]-1,4-dioxobutyl]amino]-3-pyridinepropanoate] | – | – | inhibited platelet aggregation [2]: up to 100% |
| N=C(N)c1ccc(NC(=O)CCC(=O)N[C@@H](CC(=O)O)c2cccnc2)cc1 [Example 5, βS-[[4-[[4-(aminoiminomethyl)phenyl]amino]-1,4-dioxobutyl]amino]-3-pyridinepropanoic acid] | 47 nM | – | – |
| N=C(N)c1ccc(NC(=O)CCC(=O)NC(CC(=O)O)c2ccccn2)cc1 (stereo not drawn) [Example 8] | 290 nM | – | – |
| N=C(N)c1ccc(NC(=O)CCC(=O)NC(CC(=O)O)c2ccncc2)cc1 (stereo not drawn) [Example 10] | 160 nM | – | – |
| N=C(N)c1ccc(NC(=O)C2CCCCC2C(=O)NC(CC(=O)O)c2cccnc2)cc1 (stereo not drawn) [Example 14] | – | – | inhibition at 10 µM ([1]; Canis lupus familiaris, at 10^-5, ADP-induced aggregation, read-out: Dog PRP IC50 (cell prints inhibition at a single concentration)): 0% |
| N=C(N)c1ccc(NC(=O)CCC(=O)NC(CC(=O)O)c2ccc3c(c2)OCO3)cc1 (stereo not drawn) [Example 20, β-[[4-[[4-(aminoiminomethyl)phenyl]amino]-1,4-dioxobutyl]amino]-1,3-benzodioxole-5-propanoic acid] | 68 nM | – | – |
| CCOC(=O)CC(NC(=O)CCC(=O)Nc1ccc(C(=N)N)cc1)c1cc2c(cc1[N+](=O)[O-])OCO2 (stereo not drawn) [Example 21] | > 10000 nM | – | – |
| N=C(N)c1ccc(NC(=O)CCC(=O)NC(CC(=O)O)c2cncnc2)cc1 (stereo not drawn) [Example 22] | 59 nM | – | – |
| N=C(N)c1ccc(NC(=O)CCC(=O)NC(CC(=O)O)c2cc3c(cc2[N+](=O)[O-])OCO3)cc1 (stereo not drawn) [Example 34] | 1200 nM | – | – |
| (±) [[[4-[[4-(aminoiminomethyl)phenyl]-amino]-1,4-dioxo-(2E)-butenyl]amino]-3-pyridinepropanoic acid [Example 29] | – | 110 nM | – |
| (±)-1[[[4-[[4-(aminoiminomethyl)phenyl]amino]-1,4-dioxo-(2Z)-butenyl]amino]-3-pyridinepropanoic acid [Example 30] | – | > 10000 nM | – |
| Ethyl β-[[4-[[4-(aminoiminomethyl)phenyl]amino]1,4-dioxobutyl]amino]-1,3-benzodioxole-5-propanoate (isomer 1) [Example 31] | – | 7300 nM | – |
| Ethyl β-[[4-[[4-aminoiminomethyl) phenyl]amino]-1,4-dioxobutyl]amino]-1,3-benzodioxole-5-propanoate [Example 19] | – | > 10000 nM | – |
| Ethyl-β-[[4-[[4-(aminoiminomethyl)phenyl] amino]-1,4-dioxobutyl]amino]-3-pyridinepropanoate [Example 1] | – | – | inhibited platelet aggregation [2]: up to 100% |
| β-[[4-[[3-(aminoiminomethyl)phenyl]amino]-1,5-dioxopentyl]amino]-3-pyridinepropanoic acid [Example 3] | – | > 10000 nM | – |
| β-[[4-[[4-(aminoiminomethyl)phenyl]amino]-1,4-dioxobutyl]amino]-1,3-benzodioxole-5-propanoic acid [Example 33] | – | 6800 nM | – |
| β-[[4-[[4-(aminoiminomethyl)phenyl]amino]-1,4-dioxobutyl]amino]-2-furanpropanoic acid [Example 16] | – | – | inhibited platelet aggregation [2]: up to 100% |
| β-[[4-[[4-(aminoiminomethyl)phenyl]amino]-1,4-dioxobutyl]amino]-2-thiophenepropanoic acid [Example 18] | – | 120 nM | – |
| βR-[[4-[[4-(aminoiminomethyl)phenyl]amino]-1,4-dioxobutyl]amino]-3-pyridinepropanoic acid [Example 7] | – | 4800 nM | – |

— patent EP0630366B1, “SUBSTITUTED HETEROCYCLIC DERIVATIVES USEFUL AS PLATELET AGGREGATION INHIBITORS” (G.D. Searle & Co., priority 1991, dated 1993)
